Data from ChEMBL document CHEMBL1275297, “Homology modeling and molecular dynamics of CYP1A1 and CYP2B1 to explore the metabolism of aryl derivatives by docking and experimental assays” (Eur J Med Chem, 2010).

Columns and labels:
[1] = target: T1, Cytochrome P450 2B1 (Rattus norvegicus, UniProt P00176); experiment: Binding affinity to rat CYP2B1; assay type: ADME
T1 sequence (P00176 whole entry): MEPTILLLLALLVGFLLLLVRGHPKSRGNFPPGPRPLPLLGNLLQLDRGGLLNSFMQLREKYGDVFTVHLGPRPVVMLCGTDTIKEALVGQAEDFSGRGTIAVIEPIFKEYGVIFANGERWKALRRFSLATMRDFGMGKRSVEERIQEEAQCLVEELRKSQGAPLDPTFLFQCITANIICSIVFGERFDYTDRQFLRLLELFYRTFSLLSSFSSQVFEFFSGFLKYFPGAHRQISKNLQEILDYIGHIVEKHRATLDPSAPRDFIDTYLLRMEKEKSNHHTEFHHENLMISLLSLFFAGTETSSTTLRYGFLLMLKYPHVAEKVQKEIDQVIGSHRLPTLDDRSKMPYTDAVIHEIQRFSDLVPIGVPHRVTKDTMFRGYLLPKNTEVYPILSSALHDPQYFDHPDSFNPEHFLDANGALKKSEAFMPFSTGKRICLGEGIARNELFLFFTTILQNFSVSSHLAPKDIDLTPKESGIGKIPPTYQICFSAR

[2] = Binding affinity to human CYP1A1-heme complex
[3] = Binding affinity to rat CYP2B1-heme complex
[4] = target: T2, Cytochrome P450 1A1 (Homo sapiens, UniProt P04798); experiment: Binding affinity to human CYP1A1; assay type: ADME
T2 sequence (P04798 whole entry): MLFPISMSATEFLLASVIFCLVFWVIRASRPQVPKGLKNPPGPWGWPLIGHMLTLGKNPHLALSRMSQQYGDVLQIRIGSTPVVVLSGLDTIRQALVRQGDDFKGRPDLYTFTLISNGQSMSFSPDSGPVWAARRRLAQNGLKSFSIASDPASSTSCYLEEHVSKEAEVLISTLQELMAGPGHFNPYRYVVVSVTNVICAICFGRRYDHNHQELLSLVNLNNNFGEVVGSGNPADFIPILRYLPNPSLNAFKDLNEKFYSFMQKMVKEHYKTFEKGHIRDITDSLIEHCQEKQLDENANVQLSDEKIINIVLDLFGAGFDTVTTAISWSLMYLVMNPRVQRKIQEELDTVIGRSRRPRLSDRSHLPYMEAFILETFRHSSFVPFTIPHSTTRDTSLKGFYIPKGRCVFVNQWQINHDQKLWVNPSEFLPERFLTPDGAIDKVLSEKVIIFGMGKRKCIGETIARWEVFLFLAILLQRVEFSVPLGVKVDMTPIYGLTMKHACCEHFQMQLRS

SMILES | Kd [1] | Kd [2] | Kd [3] | Kd [4]
O=C1CCC(=O)N1c1ccc(O)cc1 | 24 µM | 3.96 µM | 1.57 µM | 13.5 µM
CC(=O)Nc1ccc(O)cc1 [ACETAMINOPHEN] | – | 5.79 µM | 6.64 µM | 19.1 µM
O=C(O)CCC(=O)Nc1ccc(O)cc1 | 1.12 µM | 0.789 µM | 1.77 µM | 2.25 µM
